Data from patent US20070128217A1 (priority 2003, published 2007).

Tests used:
[1] = tested on: rabbit serum obtained by immunizing a rabbit with the SARS-CoV strain Frankfurt 1; assay type: binding; design: Binding of a rabbit serum to linear peptides / Binding of a rabbit serum to looped peptides / Rabbit serum linear peptides / Rabbit serum looped peptides / Binding of a rabbit serum to linear peptides of protein N of SARS-CoV Urbani (Rabbit serum linear peptides) / Binding of a rabbit serum to looped/cyclic peptides of protein N of SARS-CoV Urbani (Rabbit serum looped peptides): unit not given here
[2] = tested on: antibodies in sera from SARS patients (sera 1a, 1b, 2, 6, 37, 62, London, SARS-yellow, SARS-green); assay type: binding, human; design: Binding of serum 6 to linear peptides of protein X1 of SARS-CoV Urbani / Binding of serum 37 to linear peptides of protein X1 of SARS-CoV Urbani / Binding of serum 6 to looped/cyclic peptide (PEPSCAN-ELISA) / Binding of serum 37 to looped/cyclic peptide (PEPSCAN-ELISA) / Binding of serum 37 to looped/cyclic peptides of protein X1 of SARS-CoV Urbani / Binding of serum 6 to linear peptides of protein X2 / Binding of serum 37 to linear peptides of protein X2 / Binding of serum 37 to looped/cyclic peptides of protein X2 of SARS-CoV Urbani / Binding of serum 6 to linear peptides of protein M of SARS-CoV Urbani / Binding of serum 37 to linear peptides of protein M of SARS-CoV Urbani / Binding of serum 6 to looped/cyclic peptides of protein M of SARS-CoV Urbani / Binding of serum 37 to looped/cyclic peptides of protein M of SARS-CoV Urbani / Binding of serum 6 to linear peptides of protein X3 of SARS-CoV Urbani / Binding of serum 37 to linear peptides of protein X3 of SARS-CoV Urbani / Binding of serum 37 to looped/cyclic peptides of protein X3 of SARS-CoV Urbani / Binding of serum 6 to linear peptides of protein X4 of SARS-CoV Urbani / Binding of serum 37 to linear peptides of protein X4 of SARS-CoV Urbani / Binding of serum 37 to looped/cyclic peptides of protein X4 of SARS-CoV Urbani / Binding of serum 6 to linear peptides of protein X5 of SARS-CoV Urbani / Binding of serum 37 to linear peptides of protein X5 of SARS-CoV Urbani / Binding of serum 37 to looped/cyclic peptides of protein X5 of SARS-CoV Urbani / Binding of serum 6 to linear peptides of protein N of SARS-CoV Urbani / Binding of serum 37 to linear peptides of protein N of SARS-CoV Urbani / Binding of serum 6 to linear peptide (PEPSCAN-ELISA) / Binding of serum 1a to looped/cyclic peptides of protein N of SARS-CoV Urbani / Binding of serum 1b to looped/cyclic peptides of protein N of SARS-CoV Urbani / Binding of serum 2 to looped/cyclic peptides of protein N of SARS-CoV Urbani / Binding of serum 6 to looped/cyclic peptides of protein N of SARS-CoV Urbani / Binding of serum 37 to looped/cyclic peptides of protein N of SARS-CoV Urbani / Binding of serum 62 to looped/cyclic peptides of protein N of SARS-CoV Urbani / Binding of serum London to looped/cyclic peptides of protein N of SARS-CoV Urbani / Binding of serum SARS-green to looped/cyclic peptides of protein N of SARS-CoV Urbani: unit not given here
[3] = tested on: control sera (pooled serum of ten healthy LUMC hospital workers; commercial negative donor pooled serum from the Dutch bloodbank); assay type: binding, human; design: Binding of Control serum LUMC to linear peptides / Binding of Control serum Blood-bank to linear peptides / Binding of Control serum LUMC to looped peptides / Binding of Control Serum Blood-Bank to Looped peptides / Binding of Control serum LUMC to linear peptides of the protein M of SARS-CoV Urbani / Binding of Control serum Blood-bank to linear peptides of the protein M of SARS-CoV Urbani / Binding of Control serum LUMC to looped peptides of the protein M of SARS-CoV Urbani / Binding of Control Serum Blood-Bank to Looped peptides of the protein M of SARS-CoV Urbani: unit not given here

MWSFNPETNILLNVP
0.5: Binding of serum 1b to linear peptides of protein M of SARS-CoV Urbani [2] | Binding of serum 6 to looped/cyclic peptides of protein M of SARS-CoV Urbani [2] | Binding of Control serum LUMC to linear peptides of the protein M of SARS-CoV Urbani [3]
0.7: Binding of serum 1b to looped/cyclic peptides of protein M of SARS-CoV Urbani [2]
0.6: Binding of serum SARS-yellow to looped/cyclic peptides of protein M of SARS-CoV Urbani [2]
0.4: Rabbit serum linear peptides [1] | Binding of serum 6 to linear peptides of protein M of SARS-CoV Urbani [2]
0.3: Binding of serum London to linear peptides of protein M of SARS-CoV Urbani [2] | Binding of serum SARS-green to linear peptides of protein M of SARS-CoV Urbani [2] | Binding of serum SARS-green to looped/cyclic peptides of protein M of SARS-CoV Urbani [2]
0.1: Binding of serum SARS-yellow to linear peptides of protein M of SARS-CoV Urbani [2]
0.2: Rabbit serum looped peptides [1] | Binding of serum London to looped/cyclic peptides of protein M of SARS-CoV Urbani [2]
0.9: Binding of serum 2 to looped/cyclic peptides of protein M of SARS-CoV Urbani [2] | Binding of serum 37 to linear peptides of protein M of SARS-CoV Urbani [2] | Binding of serum 62 to linear peptides of protein M of SARS-CoV Urbani [2] | Binding of Control serum Blood-bank to linear peptides of the protein M of SARS-CoV Urbani [3]
0.8: Binding of serum 1a to linear peptides of protein M of SARS-CoV Urbani [2] | Binding of serum 1a to looped/cyclic peptides of protein M of SARS-CoV Urbani [2] | Binding of serum 2 to linear peptides of protein M of SARS-CoV Urbani [2] | Binding of serum 37 to looped/cyclic peptides of protein M of SARS-CoV Urbani [2] | Binding of serum 62 to looped/cyclic peptides of protein M of SARS-CoV Urbani [2] | Binding of Control Serum Blood-Bank to Looped peptides of the protein M of SARS-CoV Urbani [3] | Binding of Control serum LUMC to looped peptides of the protein M of SARS-CoV Urbani [3]

NATFFIFNKLVKDPP
0.5: Binding of serum 1a to looped/cyclic peptides of protein X1 of SARS-CoV Urbani [2] | Binding of serum 1b to linear peptides of protein X1 of SARS-CoV Urbani [2] | Binding of serum 37 to linear peptides of protein X1 of SARS-CoV Urbani [2]
0.4: Binding of serum 2 to linear peptides of protein X1 of SARS-CoV Urbani [2] | Binding of serum 6 to linear peptides of protein X1 of SARS-CoV Urbani [2] | Binding of serum 6 to looped/cyclic peptides of protein X1 of SARS-CoV Urbani [2] | Binding of serum 37 to looped/cyclic peptides of protein X1 of SARS-CoV Urbani [2] | Binding of serum 62 to linear peptides of protein X1 of SARS-CoV Urbani [2] | Binding of serum 62 to looped/cyclic peptides of protein X1 of SARS-CoV Urbani [2] | Binding of Control serum Blood-bank to linear peptides [3] | Binding of Control serum LUMC to linear peptides [3] | Binding of Control serum LUMC to looped peptides [3]
0.0: Binding of serum SARS-yellow to looped/cyclic peptides of protein X1 of SARS-CoV Urbani [2]
0.6: Binding of serum 1a to linear peptides of protein X1 of SARS-CoV Urbani [2]
0.3: Binding of a rabbit serum to looped peptides [1] | Binding of serum 1b to looped/cyclic peptides of protein X1 of SARS-CoV Urbani [2] | Binding of serum 2 to looped/cyclic peptides of protein X1 of SARS-CoV Urbani [2] | Binding of Control Serum Blood-Bank to Looped peptides [3]
0.1: Binding of a rabbit serum to linear peptides [1]
0.2: Binding of serum London to linear peptides of protein X1 of SARS-CoV Urbani [2] | Binding of serum London to looped/cyclic peptides of protein X1 of SARS-CoV Urbani [2] | Binding of serum SARS-green to linear peptides of protein X1 of SARS-CoV Urbani [2] | Binding of serum SARS-green to looped/cyclic peptides of protein X1 of SARS-CoV Urbani [2] | Binding of serum SARS-yellow to linear peptides of protein X1 of SARS-CoV Urbani [2]
